Test results taken from patent US7981926B2, “Fluorotaxoids” (Research Foundation of State University of New York, priority 2005, dated 2011).
Where two headings read alike, the source gives them in different places.

Columns and labels:
MCF7 (mammary carcinoma) = experiment: Tumor growth inhibitory activity (cytotoxicity), SRB method of Skehan et al, MCF7; format: cell-based, human; conditions: Homo sapiens, read-out: IC50 MCF7 (breast)
Excerpt: (§1) The results were obtained according to the methods of Skehan et al (See Skehan et al., J. Nat. Cancer Inst., 82, 1107 (1990)), as more fully described in the Examples. The resistance factor (R/S) shown in the table is a measure of the degree of resistance of a cell line against a taxoid compound. The resistance factor is a ratio of the cytoxicity of a taxoid compound against a drug-resistant cell line (R) as compared to its cytoxicity against a drug-sensitive cell line (S).
(§2) In the tables, lower numbers indicate higher potency (or greater activity). Paclitaxel was used as the standard for comparison. The data represent the mean values of at least three separate experiments.
(§3) Assessment of cell growth inhibition was determined according to the methods of Skehan et al (See Skehan et al., J. Nat. Cancer Inst., 82, 1107 (1990)). Briefly, cells were plated between 400 and 1200 cells/well in 96 well plates and incubated at 37° C. for 15-18 h prior to drug addition to allow attachment of cells. Compounds tested were solubilized in 100% DMSO and further diluted in RPMI-1640 containing 10 mM HEPES. Each cell line was treated with 10 concentrations of compounds (5 log range). After a 72 h incubation, 100 μL of ice-cold 50% TCA was added to each well and incubated for 1 h at 4° C. Plates were then washed 5 times with tap water to remove TCA, low-molecular-weight metabolites and serum proteins. Sulforhodamine B (SRB) (0.4%, 50 μL) was added to each well. Following a 5 minute incubation at room temperature, plates were rinsed 5 times with 0.1% acetic acid and air dried. Bound dye was solubilized with 10 mM Tris Base (pH 10.5) for 5 min on a gyratory shaker. Optical density was measured at 570 nm.
(§4) Data were fit with the Sigmoid-Emax concentration-effect model with non-linear regression, weighted by the reciprocal of the square of the predicted response (see Holford, N. H. G.; Scheiner, L. B., “Understanding the dose-effect relationship: Clinical applications of pharmaco-kinetic-pharmacodynamic models,” Clin. Pharmacokin., 6, 429-453 (1981)). The fitting software was developed by the Roswell Park Cancer Institute with Microsoft FORTRAN, and uses the Marquardt algorithm (see Marquardt, D. W., “An algorithm for least squares estimation of nonlinear parameters,” J. Soc. Ind. Appl. Math., 11, 431-441 (1963)) as adopted by Nash for the non-linear regression (see Nash, J. C., “Compact numerical method for computers: Linear algebra and function minimization,” John Wiley & Sons, New York, 1979).

[1] = system: MCF7-R (mammary carcinoma cells 250-fold resistant to paclitaxel); experiment: Tumor growth inhibitory activity (cytotoxicity), SRB method of Skehan et al, MCF7-R; format: cell-based, human; conditions: for IC50: Homo sapiens, MCF7R, read-out: IC50 MCF7-R (breast); for R/S (resistance factor): ratio of cytotoxicity against drug-resistant MCF7-R (R) to drug-sensitive MCF7 (S)
Excerpt: as §1, §2, §3, §4

[2] = MCF7, 72 h drug exposure, SRB, mean of at least three separate experiments
[3] = drug-resistant cell line, 72 h drug exposure, SRB, mean of at least three separate experiments

| Structure (SMILES) | IC50 (MCF7 (mammary carcinoma); [2]) | IC50 [1, 3] | R/S (resistance factor) [1] | melting point | IC50 (MCF7 (mammary carcinoma); MCF7, 72 h) | IC50 ([1]; 72 h) |
| --- | --- | --- | --- | --- | --- | --- |
| CC(=O)O[C@H]1C(=O)[C@@]2(C)C([C@H](OC(=O)c3ccccc3)[C@]3(O)C[C@H](OC(=O)[C@H](O)[C@H](C=C(F)F)NC(=O)OC(C)(C)C)C(C)=C1C3(C)C)[C@]1(OC(C)=O)CO[C@@H]1C[C@@H]2O (stereo partly shown) [SB-T-12851, 10-Acetyl-3′-dephenyl-3′-(2,2-difluorovinyl)docetaxel] | 99 pM | 950 pM | 9.6 | 155 to 160 °C |  |  |
| CCC(=O)O[C@H]1C(=O)[C@@]2(C)C([C@H](OC(=O)c3ccccc3)[C@]3(O)C[C@H](OC(=O)[C@H](O)[C@H](C=C(F)F)NC(=O)OC(C)(C)C)C(C)=C1C3(C)C)[C@]1(OC(C)=O)CO[C@@H]1C[C@@H]2O (stereo partly shown) [SB-T-12853, 3′-Dephenyl-3′-(2,2-difluorovinyl)-10-propanoyl-docetaxel] | 120 pM | 1200 pM | 10 | 175 to 181 °C |  |  |
| CC(=O)O[C@@]12CO[C@@H]1C[C@H](O)[C@@]1(C)C(=O)[C@H](OC(=O)N(C)C)C3=C(C)[C@@H](OC(=O)[C@H](O)[C@H](C=C(F)F)NC(=O)OC(C)(C)C)C[C@@](O)([C@@H](OC(=O)c4ccccc4)C12)C3(C)C (stereo partly shown) [SB-T-12854, 3′-Dephenyl-3′-(2,2-difluorovinyl)-10-dimethylcarbamoyldocetaxel] |  |  | 33 | 166 to 170 °C | 130 pM | 4270 pM |
| CC(=O)O[C@@]12CO[C@@H]1C[C@H](O)[C@@]1(C)C(=O)[C@H](OC(=O)N(C)C)C3=C(C)[C@@H](OC(=O)[C@H](O)[C@H](C=C(F)F)NC(=O)OC(C)(C)C)C[C@@](O)([C@@H](OC(=O)c4cccc(N=[N+]=[N-])c4)C12)C3(C)C (stereo partly shown) [SB-T-12854-3, 3′-Dephenyl-3′-(2,2-difluorovinyl)-2-debenzoyl-2-(3-azidobenzoyl)-10-dimethylcarbamoyldocetaxel] |  |  | 3.7 |  | 130 pM | 450 pM |
| CC(=O)O[C@@]12CO[C@@H]1C[C@H](O)[C@@]1(C)C(=O)[C@H](OC(=O)N(C)C)C3=C(C)[C@@H](OC(=O)[C@H](O)[C@H](C=C(F)F)NC(=O)OC(C)(C)C)C[C@@](O)([C@@H](OC(=O)c4cccc(Cl)c4)C12)C3(C)C (stereo partly shown) [SB-T-12854-4, 3′-Dephenyl-3′-(2,2-difluorovinyl)-2-debenzoyl-2-(3-chlorobenzoyl)-10-dimethylcarbamoyldocetaxel] |  |  | 2.8 |  | 930 pM | 2600 pM |
| COC(=O)O[C@H]1C(=O)[C@@]2(C)C([C@H](OC(=O)c3ccccc3)[C@]3(O)C[C@H](OC(=O)[C@H](O)[C@H](C=C(F)F)NC(=O)OC(C)(C)C)C(C)=C1C3(C)C)[C@]1(OC(C)=O)CO[C@@H]1C[C@@H]2O (stereo partly shown) [SB-T-12855, 3′-Dephenyl-3′-(2,2-difluorovinyl)-10-methoxycarbonyldocetaxel] | 140 pM | 1290 pM | 9.2 | 144 to 148 °C |  |  |
| COC(=O)O[C@H]1C(=O)[C@@]2(C)C([C@H](OC(=O)c3cccc(OC)c3)[C@]3(O)C[C@H](OC(=O)[C@H](O)[C@H](C=C(F)F)NC(=O)OC(C)(C)C)C(C)=C1C3(C)C)[C@]1(OC(C)=O)CO[C@@H]1C[C@@H]2O (stereo partly shown) [SB-T-12855-1, 3′-Dephenyl-3′-(2,2-difluorovinyl)-2-debenzoyl-2-(3-methoxybenzoyl)-10-methoxycarbonyldocetaxel] | 78 pM | 500 pM | 6.4 |  |  |  |
| COC(=O)O[C@H]1C(=O)[C@@]2(C)C([C@H](OC(=O)c3cccc(F)c3)[C@]3(O)C[C@H](OC(=O)[C@H](O)[C@H](C=C(F)F)NC(=O)OC(C)(C)C)C(C)=C1C3(C)C)[C@]1(OC(C)=O)CO[C@@H]1C[C@@H]2O (stereo partly shown) [SB-T-12855-2, 3′-Dephenyl-3′-(2,2-difluorovinyl)-2-debenzoyl-2-(3-fluorobenzoyl)-10-methoxycarbonyldocetaxel] | 120 pM | 1850 pM | 11 |  |  |  |
| COC(=O)O[C@H]1C(=O)[C@@]2(C)C([C@H](OC(=O)c3cccc(N=[N+]=[N-])c3)[C@]3(O)C[C@H](OC(=O)[C@H](O)[C@H](C=C(F)F)NC(=O)OC(C)(C)C)C(C)=C1C3(C)C)[C@]1(OC(C)=O)CO[C@@H]1C[C@@H]2O (stereo partly shown) [SB-T-12855-3, 3′-Dephenyl-3′-(2,2-difluorovinyl)-2-debenzoyl-2-(3-azidobenzoyl)-10-methoxycarbonyldocetaxel] | 76 pM | 400 pM | 5.3 |  |  |  |
| COC(=O)O[C@H]1C(=O)[C@@]2(C)C([C@H](OC(=O)c3cccc(Cl)c3)[C@]3(O)C[C@H](OC(=O)[C@H](O)[C@H](C=C(F)F)NC(=O)OC(C)(C)C)C(C)=C1C3(C)C)[C@]1(OC(C)=O)CO[C@@H]1C[C@@H]2O (stereo partly shown) [SB-T-12855-4, 3′-Dephenyl-3′-(2,2-difluorovinyl)-2-debenzoyl-2-(3-chlorobenzoyl)-10-methoxycarbonyldocetaxel] | 99 pM | 1150 pM | 12 |  |  |  |
